Measurements as given in patent US20180021347A1, “COMPOSITION FOR THE TREATMENT OF HEPATIC VENO-OCCLUSIVE DISEASE” (priority 2015, published 2018).

Key:
[1] = cited from earlier work
[2] = cited from earlier work; remark: listed apart in the source
[3] = human, in vivo; cited from earlier work
EP3-receptors = biological target: T1, EP3-receptors (Homo sapiens, UniProt P43115); details: inhibitory Gi-coupled EP3-receptors; cited from earlier work
T1 sequence (P43115 1-390): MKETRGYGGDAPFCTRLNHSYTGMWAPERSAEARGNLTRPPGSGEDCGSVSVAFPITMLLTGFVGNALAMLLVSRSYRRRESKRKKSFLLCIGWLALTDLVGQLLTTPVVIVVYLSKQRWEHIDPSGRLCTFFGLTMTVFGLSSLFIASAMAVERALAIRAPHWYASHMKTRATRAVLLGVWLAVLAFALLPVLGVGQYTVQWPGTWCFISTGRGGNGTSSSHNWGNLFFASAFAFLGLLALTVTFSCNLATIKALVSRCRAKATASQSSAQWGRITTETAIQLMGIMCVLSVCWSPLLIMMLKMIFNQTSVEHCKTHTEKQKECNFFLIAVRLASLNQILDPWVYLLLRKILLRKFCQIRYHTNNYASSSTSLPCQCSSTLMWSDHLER

[4] = test system: plasminogen-activator inhibitor-1 (PAI-1); test: qPCR of candidate target gene mRNA in TSECs: PAI-1; type: cell-based, human
Method: (§1) After pretreatment of TESCs with 10 μM treprostinil for 1 h, cells were co-incubated with 10 μM treprostinil and 125 μM BU for 24 h. Total RNA was extracted by the use of PARIS Kit (life technologies). cDNA synthesis was performed by High-Capacity Reverse Transcription Kit (applied biosystems); the resulting cDNA (equivalent to 50 ng RNA/reaction) was analyzed via qPCR (StepOnePlus real-time PCR System®, Applied Biosystems). 18s rRNA was used as a reference gene.
(§2) Based on preliminary experiments we identified plasminogen-activator inhibitor-1 (PAI-1), tissue factor (TF), tissue factor pathway inhibitor (TFPI) and thrombomodulin (TM) as suitable genes to study the potential of treprostinil to counteract busulfan-induced effects in TSECs. We also tested if busulfan-mediated effects are counteracted by 10 μM treprostinil. A total of 1.5×10^5 TESCs were plated in 6 well plates. As soon as 90% confluence was reached, cells were pretreated with treprostinil for 1 h, then cells were incubated for 24h in standard culture medium containing both BU and treprostinil. Thereafter, cells were washed and mRNA was prepared. Treprostinil counteracted the busulfan-induced increased expression of procoagulatory factors such as PAI-1 and TF (data not shown). […]

tissue factor (TF) = test: qPCR of candidate target gene mRNA in TSECs: TF; type: cell-based, human
Method: as §1, §2

[5] = test system: intracellular cAMP levels in TSECs; test: cAMP accumulation in TSECs; type: cell-based, human; details: 1 h
Method: It is desirable to understand the mechanisms, which allow treprostinil to modulate busulfan-induced gene expression, because this allows for searching for additional target genes. It was assumed that the action of treprostinil is mediated by an increased accumulation of cAMP. […] This was seen both, in the presence of 30 μM forskolin ([…], left hand panel) and if the concentration of forskolin was titrated between 1 and 30 μM (FIG. 6, middle and right hand panel). It was also seen regardless of whether [^3H]cAMP was low (FIG. 6, middle panel) or high (FIG. 6, right hand panel).
Control cells were incubated in standard medium. For comparison, cAMP accumulation was also assessed after incubation with dmPGE2. […] In the third experiment, the response was higher, presumably due to more extensive labelling of the adenine nucleotide pool. However, in none of the experiments tested, treprostinil alone sufficed to increase intracellular cAMP levels over that seen in untreated control cells.

TSECs [6] = test: Yield of RNA/mRNA from TSECs after busulfan and treprostinil; type: cell-based, human
Method: In EC340 cells, concentrations as high as 300 μM were tolerated for 96h and allowed for investigating target gene expression and regulation upon treatment with busulfan. This concentration was not compatible with the extraction of mRNA in TSECs: the amount, quality and stability of mRNA were affected in a dose- and time-dependent manner (FIG. 5 and data not shown). […] Based on the time course of gene regulation in EC340 cells, we tested a treatment duration between of a minimum of 12h and a maximum of 96h (data not shown).
Cells were either treated with 125 μM, 250 μM or 300 μM BU, the combination thereof with treprostinil (10 μM), or treprostinil (10 μM) alone, or kept in standard medium [Endothelial Cell Medium, ECM Sciencell™, USA, TSECs containing 5% fetal bovine serum, 1% endothelial cell growth supplement (ECGS) and 1% penicillin/streptomycin at 37° C. and 5% CO2]. a) Total RNA was extracted by Trizol® (lifetechnologies) according to the manufacturer's protocol. RNA concentration (ng/μl) and purity was determined with Nanodrop 2000®. If equal numbers of cells (1.6×10^5) were seeded per well, treatment with 250 and 300 μM BU induced cell death in as much rendering reproducible and valid yields of absolute RNA content impossible, already after 48h of treatment. b) The absolute yield in RNA preparations (μg/μl) was compared between cells, which had been incubated in standard medium (untreated), and cells, which had been treated with BU (125 or 250 μM BU) plus treprostinil (10 μM Trep), or treprostinil alone.

[7] = test system: tissue factor pathway inhibitor (TFPI); test: qPCR of candidate target gene mRNA in TSECs: TFPI; type: cell-based, human
Method: as §1
Based on preliminary experiments we identified plasminogen-activator inhibitor-1 (PAI-1), tissue factor (TF), tissue factor pathway inhibitor (TFPI) and thrombomodulin (TM) as suitable genes to study the potential of treprostinil to counteract busulfan-induced effects in TSECs. We also tested if busulfan-mediated effects are counteracted by 10 μM treprostinil. A total of 1.5×10^5 TESCs were plated in 6 well plates. As soon as 90% confluence was reached, cells were pretreated with treprostinil for 1 h, then cells were incubated for 24h in standard culture medium containing both BU and treprostinil. Thereafter, cells were washed and mRNA was prepared. Treprostinil counteracted the busulfan-induced increased expression of procoagulatory factors such as PAI-1 and TF (data not shown). […] These observations justify the use of TSECs as an in vitro model system to study surrogate parameters, which are predictive of an increased risk of VOD in vivo.
Treatment of TESCs was performed as indicated in the legend to FIG. 6. Treprostinil-treatment was initiated 1 h prior to addition of busulfan. Cells were collected 24 h later.

EP2-receptors = EP2-receptors (Homo sapiens, UniProt P43116); details: cited from earlier work
Chain of EP2-receptors (P43116 whole entry): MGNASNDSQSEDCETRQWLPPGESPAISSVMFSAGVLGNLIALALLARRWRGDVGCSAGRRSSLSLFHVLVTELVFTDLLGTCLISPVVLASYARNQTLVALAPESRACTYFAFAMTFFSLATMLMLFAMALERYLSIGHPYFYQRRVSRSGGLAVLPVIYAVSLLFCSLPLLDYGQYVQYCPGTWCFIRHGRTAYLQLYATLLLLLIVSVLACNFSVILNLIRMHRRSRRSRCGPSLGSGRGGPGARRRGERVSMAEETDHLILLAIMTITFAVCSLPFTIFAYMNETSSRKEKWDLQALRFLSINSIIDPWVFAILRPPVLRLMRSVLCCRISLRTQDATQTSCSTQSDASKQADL

EP4-receptors = EP4-receptors (Homo sapiens, UniProt P35408); details: cited from earlier work
Chain of EP4-receptors (P35408 whole entry): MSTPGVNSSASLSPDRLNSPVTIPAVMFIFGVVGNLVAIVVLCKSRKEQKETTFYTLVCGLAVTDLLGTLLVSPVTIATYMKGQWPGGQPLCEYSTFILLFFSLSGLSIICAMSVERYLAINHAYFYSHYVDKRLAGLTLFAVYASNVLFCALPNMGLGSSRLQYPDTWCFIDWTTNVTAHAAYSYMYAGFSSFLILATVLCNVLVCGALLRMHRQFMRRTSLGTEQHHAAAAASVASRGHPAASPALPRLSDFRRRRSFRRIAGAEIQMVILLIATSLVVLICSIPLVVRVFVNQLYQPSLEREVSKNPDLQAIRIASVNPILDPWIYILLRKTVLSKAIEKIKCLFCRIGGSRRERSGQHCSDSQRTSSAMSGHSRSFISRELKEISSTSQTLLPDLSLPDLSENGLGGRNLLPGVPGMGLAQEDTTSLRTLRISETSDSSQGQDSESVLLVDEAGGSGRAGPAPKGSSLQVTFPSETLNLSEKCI

thrombomodulin (TM) = test: qPCR of candidate target gene mRNA in TSECs: TM; type: cell-based, human; details: data not shown
Method: as §1, §2

TSECs [8] = test: Attenuation by treprostinil of busulfan-induced cell death in TSECs; type: cell-based, human
Method: TSECs were pretreated with treprostinil (10 μM) for 1 h and examined, if this protected them against busulfan-induced cell death by challenging them—in the continuous presence of treprostinil—with 125 and 250 μM and 500 μM Busulfan (BU). After 24 h, cell viability was determined by counting detached cells in a haemocytometer and determining the number of trypan blue-positive (=dead) and trypan-blue excluding (=live) cells.
TSECs were plated on collagen-coated plastic dishes (5*10^3 cells/24-well plate). After 24 hours treprostinil was added at a concentration of […]. One hour later, busulfan was added at increasing concentrations. Cell viability was assessed after 48 hours.
We examined the concentration range, in which treprostinil protected TSECs against busulfan-induced cell death. TSECs were plated on collagen-coated plastic dishes and after 24 h treprostinil was added at concentrations of 5, 10 and 20 pM. One hour later, busulfan was added at concentrations of 125 and 250 μM. Cell viability was assessed after 48 h. […] The data were analyzed using a 2-way ANOVA.
TSECs were plated on collagen-coated plastic dishes (5*10^3 cells/24-well plate). After 24 hours treprostinil was added at concentrations of 5, 10 and 20 pM. One hour later, busulfan was added at concentration of 125 and 250 μM. Cell viability was assessed after 48 hours. Even low concentrations of treprostinil (5 μM) attenuated busulfan induced cell death. […] The data were analyzed by two-way ANOVA. A Bonferroni post hoc test was conducted to test for differences between individual treatment groups.

TSECs [9] = test: Busulfan-induced death of TSECs (trypan blue cell viability); type: cell-based, human
Method: (Cheuk D K et al, Bone Marrow transplant 40: 935-944, 2007). We tested, if the toxicity of busulfan was amenable to in vitro studies on TSECs. Accordingly, we defined the concentration-response curve for busulfan-induced death of TSECs. In analogy to Raimer J et al (EurJClinPharmacol 68: 932-935, 2012), who had used ECV304 cells, we plated TSECs on collagen-coated plastic dishes (5×10^3 cells/24-well plate). After 24 hours, busulfan was added at increasing concentrations (10 μM-1 mM). The concentration range was based on reports in the literature and on the serum levels observed in patients undergoing myeloablative chemotherapy. Cell viability was assessed after 24, 48 and 72 h.
TSECs were plated on collagen-coated plastic dishes (5*10^3 cells/24-well plate). After 24 hours busulfan, a cell cycle non-specific alkylating antineoplastic agent, in the class of alkyl sulfonates with a chemical designation is 1,4-butanediol dimethanesulfonate, used as chemotherapeutic agent and known to induce VOD, was added at increasing concentrations (10 μM-1 mM). The concentration range is based on reports in the literature and on the serum levels observed in patients undergoing myeloablative chemotherapy. Cell viability was assessed after 24, 48 and 72 hours. For this purpose cells were washed twice with PBS, trypsinized, mixed with trypan blue (1:1 volumes) and counted using a hemocytometer. […] The data (means±standard deviation) shown represent cell death after for 48 hours.

EC340 cells = details: 96h; cited from earlier work
[10] = 10 μM treprostinil 1 h pretreatment, then with 125 μM BU for 24 h, data not shown

## CCCCC[C@H](O)/C=C/[C@H]1[C@H](O)CC(=O)[C@@H]1CCCCCCC(=O)O [PGE1, prostaglandin E1]
[1]; PGE1 alone (Senzolo M. et al., 2007)
  advantage in VOD: failed to show any advantage

## CCCCC[C@H](O)/C=C/[C@@H]1[C@H]2C/C(=C/CCCC(=O)O)O[C@H]2C[C@H]1O [Flolan]
[2]
  serum half-life: very short
[3]
  maximum tolerable dosage: 5 to 8 ng/kg/day

## CCCCC[C@H](O)/C=C/[C@H]1[C@H](O)CC(=O)[C@@H]1C/C=C\CCCC(=O)O [prostaglandin E2]
[1]; in combination with heparin (Senzolo M. et al., 2007)
  incidence of VOD: lower incidence of VOD

## CCCCC[C@H](O)CC[C@@H]1[C@H]2Cc3cccc(OCC(=O)[O-])c3C[C@H]2C[C@H]1O.[Na+] [treprostinil, (1R,2R,3aS,9aS)-[[2,3,3a,4,9,9a-hexahydro-2-hydroxy-1-[(3S)-3-hydroxyoctyl]-1H-benz[f]inden-5-yl]oxy]acetic acid monosodium salt]
EP3-receptors
  agonism at EP3-receptors: low affinity agonist
[4]; [10]
  effect on busulfan-induced increased expression of PAI-1: counteracted
Tissue factor (TF); [10]
  effect on busulfan-induced increased expression of TF: counteracted
[5]; sole addition of treprostinil
  intracellular cAMP levels: did not suffice to increase intracellular cAMP levels
[5]; treprostinil 10 μM, cells sensitized with forskolin (1 to 30 μM)
  intracellular cAMP levels: further increased intracellular cAMP levels
TSECs [6]; busulfan plus 10 μM treprostinil, pretreated 1 hour and co-incubated 24 h
  loss in RNA yield: 11%
TSECs [6]; treprostinil alone (10 μM), 5 independent RNA preparations
  RNA content compared to control cells: 111%
[7]; treprostinil
  expression of TFPI: induced
[7]; treprostinil in TESCs
  regulation of expression of mRNA of TFPI, concentration dependence: concentration-dependent manner
EP2-receptors
  stimulation of EP2-receptors: selectively stimulates
EP4-receptors
  stimulation of EP4-receptors: selectively stimulates
Thrombomodulin (TM); 10 μM treprostinil 1 h pretreatment, then with 125 μM BU for 24 h
  effect on busulfan-induced decrease of TM expression: mitigated the effect of busulfan
TSECs [8]; busulfan 125 and 250 μM, 48 h
  concentration close to saturation of protection against busulfan-induced cell death: 10 µM
TSECs [8]; treprostinil 10 pM added 1 hour before busulfan 125 and 250 μM, 48 hours
  cell viability: increased viability
TSECs [8]; treprostinil 5 μM, busulfan 125 and 250 μM, 48 h
  effect on busulfan-induced cell death: attenuated busulfan-induced cell death
TSECs [8]; treprostinil 10 μM, 1 h pretreatment, busulfan 125, 250 and 500 μM, after 24 h, three independent experiments
  effect on BU-induced toxicity (cell viability): attenuated BU-induced toxicity
TSECs [8]; treprostinil above 5 μM (10 and 20), busulfan 125 and 250 μM, 48 hours
  beneficial effect on busulfan induced cell death at higher concentrations: did not increase at higher concentrations

## CS(=O)(=O)OCCCCOS(C)(=O)=O [busulfan, 1,4-butanediol dimethanesulfonate]
[4]; busulfan 125 μM, 24 h
  PAI-1 expression: induces the expression
Tissue factor (TF); busulfan 125 μM, 24 h
  TF expression: induces the expression
TSECs [9]; busulfan 10 μM-1 mM, 48 hours, absence of hepatocytes (FIG. 2)
  cell death of TSECs, concentration dependence: induced cell death in a concentration dependent manner
TSECs [9]; busulfan 10 μM-1 mM, after 24 h
  cell death of TSECs: No obvious cell death
TSECs [9]; busulfan, also at lower concentrations, after 72 h
  cell death of TSECs: almost complete cell death
TSECs [6]; 48 h pretreatment of TSECs
  highest busulfan concentration allowing harvest of mRNA of adequate quality for qPCR: 125 µM
TSECs [6]; busulfan 125 μM for 48h
  yield of RNA compared to untreated cells (100%): 85%
TSECs [6]; busulfan 250 μM for 48h
  yield of RNA compared to untreated cells (100%): 74%
[7]; busulfan
  expression of TFPI: induced
Thrombomodulin (TM); busulfan 125 μM, 24 h
  thrombomodulin (TM) expression: decreased the expression
EC340 cells
  tolerated concentration: ≤ 300 µM

## CCCCC(C)(C)[C@H](O)/C=C/[C@H]1[C@H](O)CC(=O)[C@@H]1C/C=C\CCCC(=O)O [dimethyl-PGE2]
EP3-receptors
  agonism at EP3-receptors: full agonist
